System: C57BL/6 mice ear skin
Experiment: Topical G-1 treatment of mouse ear skin
Assay type: in vivo
Settings: 2% G-1 topical, 3 weeks
Description: 2×10^5 melanocytes were seeded uniformly on 6-well tissue culture plates. […] For tissue melanin assays, tissue was weighed prior to boiling in 1M NaOH for 20 minutes.
2% (w/v) G-1 was prepared in DMSO. 20 μL of this solution was applied daily to the right ear, with vehicle only applied to the left ear, of 4-week-old C57BL/6 mice. These studies were performed without inclusion/exclusion criteria, randomization, or blinding. Based on a two-fold anticipated effect, this experiment was performed with 3 biological replicates.

CC(=O)c1ccc2c(c1)[C@@H]1C=CC[C@@H]1[C@H](c1cc3c(cc1Br)OCO3)N2 (racemic) [G-1, rel-1-[4-(6-bromo-1,3-benzodioxol-5-yl)-3aR,4S,5,9bS-tetrahydro-3H-cyclopenta[c]quinolin-8-yl]-ethanone]
pigment in treated ears compared to vehicle: increased pigment
melanin content of treated tissue vs controls (right ear, whole ear tissue melanin assay): 1.6 fold

From patent publication US20180273482A1, “COMPOSITIONS AND METHODS FOR INCREASING, OR PREVENTING OR REVERSING LOSS OF, SKIN PIGMENTATION IN A MAMMALIAN SUBJECT” (THE TRUSTEES OF THE UNIVERSITY OF PENNSYLVANIA, priority 2015, published 2018)
